According to US5422341A, “Motilin-like polypeptides with gastrointestinal motor stimulating activity” (Ohmeda Pharmaceutical Products Division Inc., priority 1993, dated 1995):
Values joined by “and” are separate entries in the source; they are usually repeats but may differ in a detail not shown here. Equal entries are not always repeated. Where two headings read alike, the source gives them in different places. Square brackets hold non-standard residues; d marks the D form. Peptide text beside a SMILES is read from it. * marks the point of attachment. X5 = C=CC[N+](C)(C)[C@@H](Cc1ccccc1)C(=O)*; X1 = C[N+](C)(C)[C@@H](Cc1ccccc1)C(=O)*; NMe2Phe = CN(C)[C@@H](Cc1ccccc1)C(=O)*; NMeF = CN[C@@H](Cc1ccccc1)C(=O)O

Tests used:
motilin receptor = biological target: T1, motilin receptor (Oryctolagus cuniculus, UniProt G1T803); experiment: Determination of motilin receptor binding affinity (displacement of [125I-Tyr7, Nle13]motilin(porcine)); parameters: species or system rabbit
T1 construct: from tissue; host or cells: rabbit antral smooth muscle membranes
T1 sequence (G1T803 1-400): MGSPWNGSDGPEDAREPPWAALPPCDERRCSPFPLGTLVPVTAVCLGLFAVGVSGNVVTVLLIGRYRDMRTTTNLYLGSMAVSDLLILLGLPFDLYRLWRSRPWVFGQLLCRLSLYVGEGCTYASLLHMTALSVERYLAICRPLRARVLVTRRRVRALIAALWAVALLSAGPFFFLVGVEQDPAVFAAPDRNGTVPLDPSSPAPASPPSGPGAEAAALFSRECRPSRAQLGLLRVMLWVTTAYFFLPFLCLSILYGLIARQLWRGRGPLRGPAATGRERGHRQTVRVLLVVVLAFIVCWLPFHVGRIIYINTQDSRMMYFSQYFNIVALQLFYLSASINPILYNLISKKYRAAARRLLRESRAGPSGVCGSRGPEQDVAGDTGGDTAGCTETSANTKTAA
Method: The motilin receptor binding affinity of the peptides of this invention was determined by using the general procedure of Bormans, Peelers and Vantrappen, Regul. […] Fitting was performed using the iterative least-squares procedure of the SAS-software package (SAS Institute, Inc., Cary, N.C., USA).

[1] = biological target: segments of rabbit duodenum (Oryctolagus cuniculus, UniProt G1T803); experiment: Rabbit duodenal smooth muscle strip tissue bath assay; format: cell-based; settings: negative logarithm of the dose giving 50% of the maximal response to motilin; isotonic contraction of rabbit duodenum segments
Chain of segments of rabbit duodenum (G1T803 1-400): as above
Method: The contractile response of segments of rabbit duodenum was determined isotonically in the tissue bath according to the procedure of Depoortere et at., J. Gastrointestinal Motility, 1, 150-159 (1989). The experimental protocol consisted of an equilibration period of 1 hour; a challenge with 10^-4 M acetylcholine followed by a wash-out period; a cumulative dose-response curve of a compound with, at the end, the addition of 10^-7 M motilin; and finally 10^-4 M acetylcholine. If the final response to 10^-4 M acetylcholine differed by more than 5% from the initial response, the results were discarded. The compounds were tested in the concentration range 10^-11 to 10^-4 M. The point corresponding to 50% of the maximal response to motilin (Emax) was determined by fitting the equation E=Emax (1+EC50 /[L]) through the data points. […] The dose giving 50% of the response is expressed using its negative logarithm (pEC50).

[2] = tested on: canine gastrointestinal tract; experiment: Contractile activity in the canine gastrointestinal tract; format: in vivo, dog; settings: anesthetized dogs, intra-arterial injection to a duodenal segment; amount giving 50% of the calibration response to field stimulation
Method: Mongrel dogs of either sex were anesthetized with sodium pentobarbital 65 mg/kg intravenously. A mid-line incision was made in the abdomen. A duodenal segment was located, the terminal arteries to that segment were identified, and the closest possible artery of the appropriate size was rubbed clean of fat and fascia. A needle of suitable diameter was bent at an angle and the tip inserted in the cleaned artery. The needle was held in position in the artery for approximately 30 seconds until vascular spasm has relaxed and then a catheter assembly was inserted into the artery and tied into position with 000 silk sutures. The fine polyethylene catheter (10-15 cm) was cut to a point at one end with a needle inserted at the other end. The hub of the needle was fitted with a 3-way stopcock and the catheter assembly was filled with heparinized Krebs Ringer bicarbonate containing 10 mM glucose. A bolus of Krebs (free of air) was injected into the arterial catheter and the distribution of blanching in the segment noted. If the area was too large, collateral arteries may be tied off as long as circulation to the area was maintained. A Bass type strain gauge was then sutured to the serosa, and oriented so that circular muscle contractions can be recorded on a Beckman R611 dynograph. Silver wire electrodes were inserted subserosally on either side of the strain gauge and were connected through stimulus isolation units to a Grass S88 electrical stimulator. Electrical field stimulation was applied at 40 V 0.5 ms and 5 pps and the amplitude of the pen recorder was set to contain the contractile response.
All peptides to be injected were dissolved in Krebs and serial dilutions were prepared so that for any concentration the maximum volume to be injected was 1 ml. All solutions except stock Krebs were held on ice for the day of the experiment and discarded at the end of the day. For determination of a dose-response curve, the site was first injected with a bolus of approximately 1 ml of heparinized Krebs to provide a flush control. Peptide agonists (in volumes of 1 ml flushed with 1 ml of Krebs) were injected in logarithmic increments until a response which was maximal in amplitude was obtained. The injection site was then flushed with Krebs containing 0.1% BSA to displace any peptide remaining in the arterial line. For peptides acting at the motilin receptor, care was taken not to inject supramaximal doses as these will induce tachyphylaxis. Therefore, as responses become apparent, 0.3 or 0.5 log unit increments were used. A site was used for a dose-response determination only every 1/2 to 1 hour.
The amplitude of the calibration response to field stimulation in each site was measured and used as 100% for that site. The amplitude of the response to the agonist at each dose was determined, calculated as a % of the calibration response and plotted against the concentration. The ED50 of the response represents the amount of agonist required to produce a response which was 50% of the calibration response.

[3] = negative logarithm of the concentration displacing 50% of [125I-Tyr7, Nle13]motilin(porcine) from rabbit antral smooth muscle membranes, read-out: pIC50 (converted)

SMILES | IC50 (motilin receptor; [3]) | pEC50 [1] | ED50 [2] [nmol] | IC50 (motilin receptor; pIC50, negative logarithm of the concentration displacing 50% of [125I-Tyr7, Nle13]motilin(porcine) from rabbit antral smooth muscle membranes) [nM]
CC[C@H](C)[C@H](NC(=O)[C@H](C)NC(=O)[C@@H](NC(=O)[C@H](Cc1ccccc1)[N+](C)(C)C)C(C)C)C(=O)N[C@@H](Cc1ccccc1)C(=O)N[C@H](C(=O)N[C@@H](Cc1ccc(O)cc1)C(=O)NCC(=O)N[C@@H](CCC(=O)O)C(=O)N[C@@H](CC(C)C)C(=O)N[C@@H](C)C(=O)N[C@H](CCCNC(=N)N)C(=O)N[C@@H](CC(C)C)C(=O)N[C@@H](CCCCN)C(N)=O)[C@@H](C)O (X1-VAIFTYGELA[dR]LK-NH2) | 1.91 nM | 7.59 | 0.001 | –
CC[C@H](C)[C@H](NC(=O)[C@@H]1CCCN1C(=O)[C@@H](NC(=O)[C@H](Cc1ccccc1)NC)C(C)C)C(=O)N[C@@H](Cc1ccccc1)C(=O)N[C@H](C(=O)N[C@@H](Cc1ccc(O)cc1)C(=O)NCC(=O)N[C@@H](CCC(=O)O)C(=O)N[C@@H](CC(C)C)C(=O)N[C@@H](CCC(N)=O)C(=O)N[C@H](CCCNC(=N)N)C(=O)N[C@@H](CC(C)C)C(=O)N[C@H](CCC(N)=O)C(N)=O)[C@@H](C)O (H-[NMeF]VPIFTYGELQ[dR]L[dQ]-NH2) | – | – | 0.0004 | –
CC[C@H](C)[C@H](NC(=O)[C@H](C)NC(=O)[C@@H](NC(=O)[C@H](Cc1ccccc1)NC)C(C)C)C(=O)N[C@@H](Cc1ccccc1)C(=O)N[C@H](C(=O)N[C@@H](Cc1ccc(O)cc1)C(=O)NCC(=O)N[C@@H](CCC(=O)O)C(=O)N[C@@H](CC(C)C)C(=O)N[C@@H](CCC(N)=O)C(=O)N[C@H](CCCNC(=N)N)C(=O)N[C@@H](CC(C)C)C(=O)N[C@@H](CCCCN)C(N)=O)[C@@H](C)O (H-[NMeF]VAIFTYGELQ[dR]LK-NH2) | 0.631 nM | 7.72 | 0.06 | –
CC[C@H](C)[C@H](NC(=O)[C@@H]1CCCN1C(=O)[C@@H](NC(=O)[C@H](Cc1ccccc1)NC)C(C)C)C(=O)N[C@@H](Cc1ccccc1)C(=O)N[C@H](C(=O)N[C@@H](Cc1ccc(O)cc1)C(=O)NCC(=O)N[C@@H](CCC(=O)O)C(=O)N[C@@H](CC(C)C)C(=O)N[C@@H](C)C(=O)N[C@H](CCCNC(=N)N)C(=O)N[C@@H](CC(C)C)C(=O)N[C@@H](CCC(N)=O)C(N)=O)[C@@H](C)O (H-[NMeF]VPIFTYGELA[dR]LQ-NH2) | – | – | 0.0018 | –
CC[C@H](C)[C@H](NC(=O)[C@H](C)NC(=O)[C@@H](NC(=O)[C@H](Cc1ccccc1)NC)C(C)C)C(=O)N[C@@H](Cc1ccccc1)C(=O)N[C@H](C(=O)N[C@@H](Cc1ccc(O)cc1)C(=O)NCC(=O)N[C@@H](CCC(=O)O)C(=O)N[C@@H](CC(C)C)C(=O)N[C@@H](CCC(N)=O)C(=O)N[C@H](CCCNC(=N)N)C(=O)N[C@@H](CC(C)C)C(=O)N[C@@H](CCC(N)=O)C(N)=O)[C@@H](C)O (H-[NMeF]VAIFTYGELQ[dR]LQ-NH2) | – | – | 0.024 | –
CC[C@H](C)[C@H](NC(=O)[C@@H]1CCCN1C(=O)[C@@H](NC(=O)[C@@H](N)Cc1ccccc1)C(C)C)C(=O)N[C@@H](Cc1ccccc1)C(=O)N[C@H](C(=O)N[C@@H](Cc1ccc(O)cc1)C(=O)N[C@H](C)C(=O)N[C@@H](CCC(=O)O)C(=O)N[C@@H](CC(C)C)C(=O)N[C@@H](CCC(N)=O)C(=O)N[C@H](CCCNC(=N)N)C(=O)N[C@@H](CC(C)C)C(=O)N[C@@H](CCC(N)=O)C(=O)O)[C@@H](C)O [[D-Ala^8, D-Arg^12, Leu^13]pMOT(1-14), H-Phe-Val-Pro-Ile-Phe-Thr-Tyr-D-Ala-Glu-Leu-Gln-D-Arg-Leu-Gln-OH] (H-FVPIFTY[dA]ELQ[dR]LQ-OH) | 6.03 nM | 7.09 | – | –
CC[C@H](C)[C@H](NC(=O)[C@@H]1CCCN1C(=O)[C@@H](NC(=O)[C@H](Cc1ccccc1)[N+](C)(C)C)C(C)C)C(=O)N[C@@H](Cc1ccccc1)C(=O)N[C@H](C(=O)N[C@@H](Cc1ccc(O)cc1)C(=O)NCC(=O)N[C@@H](CCC(=O)O)C(=O)N[C@@H](CC(C)C)C(=O)N[C@@H](CCC(N)=O)C(=O)N[C@H](CCCNC(=N)N)C(=O)N[C@@H](CC(C)C)C(=O)N[C@@H](CCC(N)=O)C(=O)O)[C@@H](C)O (X1-VPIFTYGELQ[dR]LQ-OH) | 3.55 nM and 2.14 nM | 7.52 | – | –
CC[C@H](C)[C@H](NC(=O)[C@@H]1CCCN1C(=O)[C@@H](NC(=O)[C@H](Cc1ccccc1)[N+](C)(C)C)C(C)C)C(=O)N[C@@H](Cc1ccccc1)C(=O)N[C@H](C(=O)N[C@@H](Cc1ccc(O)cc1)C(=O)NCC(=O)N[C@@H](CCC(=O)O)C(=O)N[C@@H](CC(C)C)C(=O)N[C@@H](C)C(=O)N[C@H](CCCNC(=N)N)C(=O)N[C@@H](CC(C)C)C(=O)N[C@H](CCC(N)=O)C(N)=O)[C@@H](C)O (X1-VPIFTYGELA[dR]L[dQ]-NH2) | 2.45 nM | 7.25 | – | –
CC[C@H](C)[C@H](NC(=O)[C@@H]1CCCN1C(=O)[C@@H](NC(=O)[C@H](Cc1ccccc1)N(C)C)C(C)C)C(=O)N[C@@H](Cc1ccccc1)C(=O)N[C@H](C(=O)N[C@@H](Cc1ccc(O)cc1)C(=O)NCC(=O)N[C@@H](CCC(=O)O)C(=O)N[C@@H](CC(C)C)C(=O)N[C@@H](C)C(=O)N[C@H](CCCNC(=N)N)C(=O)N[C@@H](CC(C)C)C(=O)N[C@@H](CCC(N)=O)C(N)=O)[C@@H](C)O (NMe2Phe-VPIFTYGELA[dR]LQ-NH2) | 1.95 nM | 7.76 | – | –
CC[C@H](C)[C@H](NC(=O)[C@H](C)NC(=O)[C@@H](NC(=O)[C@H](Cc1ccccc1)NC)C(C)C)C(=O)N[C@@H](Cc1ccccc1)C(=O)N[C@H](C(=O)N[C@@H](Cc1ccc(O)cc1)C(=O)NCC(=O)N[C@@H](CCC(=O)O)C(=O)N[C@@H](CC(C)C)C(=O)N[C@@H](CCC(N)=O)C(=O)N[C@H](CCCNC(=N)N)C(=O)N[C@@H](CC(C)C)C(=O)N[C@H](CCC(N)=O)C(N)=O)[C@@H](C)O (H-[NMeF]VAIFTYGELQ[dR]L[dQ]-NH2) | – | 8.07 | – | 0.776
C=CC[N+](C)(C)[C@@H](Cc1ccccc1)C(=O)N[C@H](C(=O)N1CCC[C@H]1C(=O)N[C@H](C(=O)N[C@@H](Cc1ccccc1)C(=O)N[C@H](C(=O)N[C@@H](Cc1ccc(O)cc1)C(=O)NCC(=O)N[C@@H](CCC(=O)O)C(=O)N[C@@H](CC(C)C)C(=O)N[C@@H](CCC(N)=O)C(=O)N[C@@H](CCCNC(=N)N)C(=O)N[C@@H](CC(C)C)C(=O)N[C@@H](CCC(N)=O)C(N)=O)[C@@H](C)O)[C@@H](C)CC)C(C)C (X5-VPIFTYGELQRLQ-NH2) | 1.74 nM | 7.47 | – | –
CC[C@H](C)[C@H](NC(=O)[C@@H]1CCCN1C(=O)[C@@H](NC(=O)[C@@H](N)Cc1ccccc1)C(C)C)C(=O)N[C@@H](Cc1ccccc1)C(=O)N[C@H](C(=O)N[C@@H](Cc1ccc(O)cc1)C(=O)NCC(=O)N[C@@H](CCC(=O)O)C(=O)N[C@@H](CC(C)C)C(=O)N[C@@H](C)C(=O)N[C@H](CCCNC(=N)N)C(=O)N[C@@H](CC(C)C)C(=O)N[C@@H](CCC(N)=O)C(=O)O)[C@@H](C)O [[Ala^11, D-Arg^12, Leu^13]pMOT(1-14)] (H-FVPIFTYGELA[dR]LQ-OH) | 1.66 nM | 7.63 | – | –
